Row | Compound | melting point
1 | O=C(/C=C/C=C(c1ccc(F)cc1)c1ccc(F)cc1)Oc1ccc([N+](=O)[O-])cc1 | 112 to 114 °C
2 | CC(C)n1cnc2c(NCc3ccccc3)nc(NCCCO)nc21 | 98 to 101 °C
3 | CC(=O)Oc1cc(CNC=C2C(=O)NC(=O)c3ccc(Br)cc32)cc(OC(C)=O)c1 | 257 to 258 °C
4 | Cc1cc2[nH]c(=O)c3cnccc3n2n1 | > 300 °C
5 | COCN(C(=O)CCl)c1c([N+](=O)[O-])cccc1[N+](=O)[O-] | 106 to 108 °C
6 | CCCCN(Cc1ccc(C#N)cc1Cl)c1c(NC(C)(C)C)c(=O)c1=O | 133 to 134 °C
7 | O=c1[nH][nH]c(=O)c2c(O)c3ccc(F)cc3nc12 | 228 °C
8 | C=CCOC(=O)c1cc(NC(=O)OC(C)(C)C)ccc1OCC=C | 77 to 78 °C
9 | CN1CCC(N(C)c2nc(Nc3ccc(O)c(Cl)c3)nc(NC3CCCCCC3)n2)CC1 | 68 °C
10 | O=C(NCCN1CCNCC1)c1cccc(C=CC(=O)N2CCc3c([nH]c4ccccc34)C2c2ccc3c(c2)OCO3)c1 (stereo unspecified) | 138 to 140 °C
11 | O=C(O)c1c(Cc2cc3c(cc2Cl)OCO3)c(-c2ccccc2)nn1CC1CCCC(C(=O)O)C1 (stereo unspecified) | 130 °C
12 | COc1cc(OC(C)(C)C(=O)O)c(-c2cccs2)cc1C=O | 183 to 184 °C
13 | CO/C=C(/C(=O)OC)c1ccccc1COc1cccc(Br)n1 | 64 to 65 °C
14 | COc1ccc(C(=O)NC2N=C(c3ccccc3F)c3ccccc3NC2=O)cc1OC (racemic) | 206 to 208 °C
15 | COC(=O)NCc1nc2ccn(Cc3ccc(F)cc3)cc-2n1 | 179 °C
16 | O=C(Cc1ccccc1[N+](=O)[O-])c1ccccc1F | 84 to 86 °C
17 | CCOc1cc2c(c3c1OC(C)(C)C3)C(c1cccc(N3C(=O)CNC3=O)c1)=NC(C)(C)C2 | 202 to 204 °C
18 | COc1cc(COc2nn(-c3ccccc3)cc2C(C[N+](=O)[O-])C[N+](=O)[O-])ccc1OCc1nc(-c2ccco2)oc1C | 126 to 127 °C
19 | CC(C)Oc1c(-c2ccc3c(c2)[C@@H](N2Cc4ccccc4C2=O)[C@H](O)C(C)(C)O3)c(=O)c1=O (relative stereo) | > 250 °C
20 | COC(=O)c1ccc(NCc2ccccc2)cn1 | 104 to 107 °C
21 | CN(C)c1nc(N)ncc1Cc1ccccc1 | 181 to 182 °C
22 | COc1c(C2CCN(CCCCOc3ccc(-c4ccc(C#N)cc4)cc3)CC2)ccc2ccccc12 | 142 °C
23 | Cc1ccc(S(=O)(=O)Oc2n[nH]c(CO)c2C(C)(C)C)cc1 | 62 to 65 °C
24 | CC(=O)NC(=S)NCC1CC2c3cccc4c3c(cn4C)CC2N(C)C1 (stereo unspecified) | 195 to 197 °C
25 | Cc1cccc2c1C[C@H](C(=O)O)[C@@H]2C (relative stereo) | 132 to 135 °C

Row | Compound | melting point
26 | CCOC(=O)c1cn(C(C)(C)C)c2nc(F)c(Cl)cc2c1=O | 155 °C
27 | CCCCNC(=O)OC1c2nccnc2C(=O)N1c1ccc2ccc(Cl)nc2n1 (stereo unspecified) | 264 °C
28 | CC(=O)OC1CCC(n2c(Br)nc3cc(Cl)c(Cl)cc32)C1OC(C)=O (stereo unspecified) | 140 to 146 °C
29 | CN(C)S(=O)(=O)c1cc(-c2csc(=Nc3ccc4c(c3)OCO4)n2C)ccc1Cl | 171 to 173 °C
30 | Cc1cc(C)c(C(=O)C(F)(F)F)[nH]1 | 80 °C
31 | CN1Cc2c(C(=O)OC(C)(C)C)ncn2-c2cccc(I)c2C1=O | 203 to 204 °C
32 | CCC(=O)c1cn(C)cc(-c2cccc(C(F)(F)F)c2)c1=O | 136 to 138 °C
33 | CN(C)C(=O)Sc1ccc(Br)cc1C=O | 118 to 120 °C
34 | O=C(O)C1=Cc2cc(Cl)c(Oc3ccc(Cl)c(F)c3)cc2OC1C(F)(F)F (stereo unspecified) | 207 °C
35 | COc1ccc(C(=O)Cc2ccccc2)c(Cl)c1Cl | 125 to 127 °C
36 | Cc1ccc2c(c1)c(Cl)c(C#N)c(=O)n2C | 241 °C
37 | Cc1ccc(C(=O)NCCC(=O)OCc2ccccc2)c(NC(=O)CCCCNC(=O)OC(C)(C)C)c1 | 112 to 113 °C
38 | CCOC(=O)c1ccc(NCCc2ccc(OCc3ccccc3)cc2)cc1 | 94 to 97 °C
39 | COc1cccc2c1nc(C(F)F)n2-c1nc(Nc2cccnn2)nc(N2CCOCC2)n1 | 261 to 263 °C
40 | CC(C)Oc1c(-c2ccc(S(C)(=O)=O)cc2)cnn(-c2ccc(F)cc2)c1=O | 135 to 137 °C
41 | Cc1cccc(Oc2c[nH]c(=S)[nH]c2=O)c1 | 210 °C
42 | Fc1ccc(-c2nc(SC(F)(F)C(F)F)[nH]c2-c2cccs2)cc1 | 164 to 168 °C
43 | CN(C)C=NC1CCN(Cc2ccccc2)CC1 | 61 to 65 °C
44 | CCCOc1ccc(S(=O)(=O)N2CCN(CCC)CC2)cc1-c1nc2cc3ncn(Cc4ccccc4)c3cc2c(=O)[nH]1 | 194 to 195 °C
45 | O=C(OCC(F)(F)F)c1ncn2c1CN=C(c1ccccc1F)c1cc(Br)ccc1-2 | 223 to 224 °C
46 | CC(=O)OCc1c(Br)cccc1N1CCc2c(sc3c2CC(C)(C)C3)C1=O | 126 to 128 °C
47 | CC1(C)OC(c2ccc(S(C)(=O)=O)cc2)=C(c2cc3ccccc3o2)C1=O | 140 to 141 °C
48 | Cc1nnc(-c2ccc3occ(-c4ccc(OS(=O)(=O)C(F)(F)F)cc4)c3c2)o1 | 136 to 137 °C
49 | COc1ccc2[nH]c(=O)[nH]c(=O)c2c1OC | 266 to 268 °C

Second part, the molecule after the results:

Row | melting point | Compound
50 | 191 to 193 °C | Cc1ncccc1CN(CCn1cc(C)c2occc2c1=O)Cc1ccc2c(c1)NC(=O)C(C)(C)C(=O)N2C1CC1
51 | 292 to 294 °C | CS(=O)(=O)N(CCO)c1c(Cl)c(C(F)(F)F)cc2[nH]c(=O)c(=O)[nH]c12
52 | 297 to 300 °C | O=c1[nH]c(=O)n2c3c1cnn3C(c1cccc(C(F)(F)F)c1)CC2 (stereo unspecified)
53 | 139 to 140 °C | O=C1CC(c2ccccc2)Oc2cc(OCCn3ccnc3)ccc21 (stereo unspecified)
54 | 102 to 104 °C | CC[C@@H](c1ccccc1)N(Cc1ccc(C(=O)O)cc1)S(=O)(=O)c1ccc(C(=O)O)cc1
55 | 54 to 57 °C | COC(=O)CN(CC(=O)OC)c1cccc([N+](=O)[O-])c1
56 | 133 to 135 °C | CSC(=S)Nc1ccc(OCc2nc3ccccc3s2)cc1C
57 | 222 to 224 °C | Cc1c(Nc2ncc(Br)cc2C(=O)O)cccc1C(F)(F)F
58 | 265 °C | CCCCNc1cc(C(=O)O)cc(S(N)(=O)=O)c1Oc1ccc(S(N)(=O)=O)cc1
59 | 197 to 198 °C | CC(=O)c1ccc2c(c1)OCC(=O)N2
60 | 123 to 124 °C | CCCCc1nc2cccc(C(=O)OC)c2n1Cc1ccc(-c2ccccc2C#N)cc1
61 | 195 °C | OC1CSC(Oc2cccnc2-c2cncnc2)C(O)C1O (stereo unspecified)
62 | 115 to 116 °C | O=C(/C=C\[C@H]1CC1(c1ccccc1)c1ccccc1)NCCCCc1cccnc1
63 | 161 °C | COc1nc(C)nc(NC(=O)NS(=O)(=O)c2c(C)cccc2OCCF)n1
64 | 244 to 245 °C | Cc1ccc(C2=C(c3ccc(C)cc3)C(c3ccc(C)cc3)=C(c3ccc(C)cc3)C2=O)cc1
65 | 203 to 205 °C | CC(C)NC(=O)c1c(NC(=O)c2cc(C(F)(F)F)nn2-c2ncccc2Cl)ccc2cn[nH]c12
66 | 85 to 86 °C | CCNC(=O)n1nc(Oc2ncc(C(F)(F)F)cc2Cl)cc1C
67 | 205 to 207 °C | CCCCCc1cc2c(nc(O)n2CC2CCN(C(=O)C3CC3)CC2)c(N)n1
68 | 203 to 205 °C | O=C1Nc2cccnc2N(C(=O)CN2CCCCC2CN2CCOCC2)c2ccccc21 (stereo unspecified)
69 | 140 to 143 °C | CC(C)c1sc(-c2ccccc2)c(-c2ccc(F)cc2)c1CO
70 | 62 to 64 °C | CCOC(=O)C(C)Oc1ncn(-c2ccc(Cl)cc2)n1 (stereo unspecified)
71 | 52 to 58 °C | O=C1C=C(O)CC(CCc2ccc(O)cc2)(C2CCCCC2)O1 (stereo unspecified)
72 | > 250 °C | CCC1(O)CC(=O)OCc2c1cc1n(c2=O)Cc2cc3c4c(c(F)cc3nc2-1)OCN(Cc1ccccc1)C4 (stereo unspecified)
73 | 132 to 134 °C | COc1ccc(-c2c(Cl)nc(Cl)nc2-c2ccccc2)cc1

Row | melting point | Compound
74 | 198 to 199 °C | CC(=O)c1ccc(S(=O)(=O)Nc2ccccn2)cc1
75 | 134 to 135 °C | CCCCCS(=O)(=O)NC(=O)/C=C/c1ccc(OCCOC)cc1Oc1ccc(C(F)(F)F)cc1Cl
76 | 114 to 116 °C | CC1(CC(=O)O)CCc2ccccc2C1=O (stereo unspecified)
77 | 239 °C | O=C1NCC(=O)c2c(ncn2C2OC(COC(=O)c3ccccc3)C(OC(=O)c3ccccc3)C2OC(=O)c2ccccc2)N1 (stereo unspecified)
78 | 130 to 131 °C | COc1cc(CCCOS(C)(=O)=O)ccc1OCc1coc(/C=C/c2ccccc2)n1
79 | 181 to 183 °C | CC(=O)NCC1OC(=O)N2c3ccc(-c4ccccc4)cc3CC12 (stereo unspecified)
80 | 256 to 257 °C | Nc1cc(C(O)=S)cc(Cc2ccccc2)c1Cc1ccccc1
81 | 64 to 64.5 °C | C=CCCn1ncc2c(N)c(C(=O)OCC=C)c(C)nc21
82 | 162 °C | C[C@@H](CSC(=O)c1ccccc1)C(=O)N1C(=O)N(C)C[C@H]1C(=O)O
83 | 132 to 135 °C | O=C(c1ccc(F)cc1)C1CCN(CC(O)c2cc(Br)no2)CC1 (stereo unspecified)
84 | 226 to 228 °C | CCN(CC)CCN1C(=O)c2cc(OC)c3[nH]c4ccc(O)cc4c3c2C1=O
85 | 117 to 120 °C | COc1cccc(C(=O)O)c1NC(=O)C(C)(C)C
86 | 108 to 109 °C | CC(=O)NC1CCCCC1
87 | 90 °C | COC(=O)CCCc1cc2nc(Cl)ccc2n1S(=O)(=O)c1cc(F)cc(F)c1
88 | 263 to 266 °C | O=C(NN1CCN(C(=O)Nc2ccccc2)CC1)c1ccc(F)cc1
89 | 89 to 90 °C | CCOC(=O)C1=C(C)NC(COC(C)=O)=C(C(=O)OCC)C1c1ccccc1[N+](=O)[O-] (stereo unspecified)
90 | 91.7 to 92.9 °C | CCOc1ccc(-c2nc(CCC(=O)c3ccccc3C(=O)OC)cs2)cc1OCC
91 | 288 to 289 °C | CC(C)(C)C(=O)Nc1ccc(SSc2ccc(NC(=O)C(C)(C)C)cc2C(N)=O)c(C(N)=O)c1
92 | 78 to 80 °C | CC(C)C1c2ccc(F)cc2CCC1(O)CCO (stereo unspecified)
93 | 70 to 80 °C | O=C(O)[C@H](Cc1ccccc1)NC(=O)[C@@H]1CCCN1S(=O)(=O)c1ccc([N+](=O)[O-])cc1
94 | 155 to 158 °C | COC(=O)CSc1nc(SCc2c(Cl)cccc2Cl)ncc1[N+](=O)[O-]
95 | 81 to 82 °C | CCOC(=O)C(=NOC)c1csc(NC(=O)CCl)n1
96 | 189 to 191 °C | CCCOc1oc(=O)c2cc(NC(=O)NCC)ccc2c1Cl

— a melting point compilation (Tetko et al.; mined from patent text by program, amines drawn as free bases though some values may be those of a salt)
